Assay results taken from paper PMC6712483, “BlsA Is a Low to Moderate Temperature Blue Light Photoreceptor in the Human Pathogen Acinetobacter baumannii” (Frontiers in Microbiology, 2019).

Biological target: T1, BlsA (dBlsA, His-BlsA) (Acinetobacter baumannii, UniProt V5VB82)
T1 construct: gene ycgF; short BLUF protein, recombinant His-tag fusion, purified as in Abatedaga et al. 2017; approximately 20 kDa; residues named Tyr7, Gln51, Trp78, Trp92
Assay: cofactor fluorescence emission and anisotropy (steady-state and time-resolved), UV-vis photocycle
Assay type: binding
Details: dark-adapted state; cofactor bound on purification; temperature series, compared with free FAD

T1 sequence (V5VB82 entry or part of it): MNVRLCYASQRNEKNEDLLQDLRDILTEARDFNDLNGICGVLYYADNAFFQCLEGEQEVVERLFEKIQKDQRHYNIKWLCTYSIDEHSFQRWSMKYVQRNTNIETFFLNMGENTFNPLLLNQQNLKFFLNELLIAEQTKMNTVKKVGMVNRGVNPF

Q: For `Cc1cc2nc3c(=O)[nH]c(=O)nc-3n(C[C@H](O)[C@H](O)[C@H](O)COP(=O)(O)OP(=O)(O)OC[C@H]3O[C@@H](n4cnc5c(N)ncnc54)[C@H](O)[C@@H]3O)c2cc1C` [FAD], which “cofactor fluorescence emission and anisotropy (steady-state and time-resolved),” value is on record?
A: the steady-state anisotropy of the cofactor in dBlsA solutions is strongly decreased
